The test system of the assay is S. cerevisiae Mot1-301 ts growth rescue, BacTiter-Glo ATP luminescence. Briefly: growth rescue of Mot1-301 ts yeast, confirmation, SUMOylation pathway inhibitor project, whole organism, S. cerevisiae, Mot1-301 ts mutant, luminescence, dose retest (AID 463204).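 Also: growth at restrictive 38.5 degrees C of Mot1-301 OY566 strain; actives raise luminescence by restoring growth of the ts mutant at high temperature.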

Active and inactive are the calls of the source.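 The calls were made as follows: active = AC50 no more than ten times the top concentration tested, that is within one log above it; inconclusive = flat curve fit with activity between 30% and 70%, or invalid poor fit; inactive = AC50 beyond ten times the top tested dose.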 Some results are limits rather than exact numbers.

As for `CCCc1ccc(S(=O)(=O)NCCc2ccncc2)cc1`, the AC50 was > 42 µM (inactive).

Regarding `Clc1ccc(CONc2ncnc3nonc23)c(Cl)c1`, the concentration at half-maximal activity (AC50) is 5.49 µM.

For the compound `CC1CC(c2ccccc2)NS(=O)(=O)O1` (stereo not drawn), the AC50 was > 42 µM (inactive).

For the compound `COc1cc(C(c2c(C)[nH][nH]c2=O)c2c(C)[nH][nH]c2=O)cc(OC)c1OC`, the AC50 is > 42 µM (inactive).

Take `Cc1cccc(-[n+]2c(-c3cccc(Br)c3)[nH]c3nc4ccccc4nc32)c1`: the AC50 is > 42 µM (inactive).

As for `O=C(Nc1ccccc1)N1CCN(CCc2ccccc2)CC1`, the AC50 is > 42 µM (inactive).

For `Nc1nc(CSc2nnnn2-c2ccc(Cl)cc2)nc(N2CCOCC2)n1`, the AC50 is > 42 µM (inactive).

For `CCc1ccc(-n2c(Cc3ccccc3)n[nH]c2=S)cc1`, the AC50 is > 42 µM (inactive).

In the case of `C/C(=N/Nc1ccc(F)cc1)c1ccc(Cl)s1`, the AC50 was > 42 µM (inactive).

For the compound `COC(=O)c1ccc(/C=N/NC(=O)C(=O)NCC2CCCO2)cc1` (stereo not drawn), the AC50 is > 42 µM (inactive).

Regarding `COc1cccc(/C=N/n2cnc3ccccc32)c1OC`, the AC50 is > 42 µM (inactive).

For the compound `C[N+](C)(C)CC(=O)Nc1ccc(Cl)cc1C(=O)c1ccccc1`, the AC50 is > 42 µM (inactive).

As for `COc1cccc(N=Nc2c(=O)[nH]n3c(=O)cc(C)[nH]c23)c1`, the AC50 was > 42 µM (inactive).

Consider `Cn1c(SCC(=O)N/N=C/c2ccc([N+](=O)[O-])s2)nnc1-c1ccc(Cl)cc1`, for which the half-maximal activity concentration (AC50) was 10.2 µM.

As to `Fc1ccc(-c2cc(C(F)(F)F)nc(NCc3cccs3)n2)cc1`, the AC50 was > 42 µM (inactive).

`O=C(Nc1nc(-c2ccccn2)cs1)c1ccc2c(c1)OCCO2`: the AC50 was > 42 µM (inactive).

Turning to `Cc1cc(C)n(-c2nc3ccccc3nc2N2CCN(C(=O)c3ccccc3)CC2)n1`, the AC50 was > 42 µM (inactive).

For the compound `O=c1[nH]nc(Cc2ccc(-c3ccccc3Cl)o2)c2ccccc12`, the AC50 was > 42 µM (inactive).

Take `Cc1ccc(N(C(=O)Cn2nnc3ccccc32)C(C(=O)NC2CCCCC2)c2cn(C)nc2C)cc1` (stereo not drawn): the AC50 is > 21 µM (inactive).

Consider `O=C(NCCN1CCOCC1)Nc1ccc(Cl)cc1Cl`, for which the AC50 was > 42 µM (inactive).

For `CCN(CC)C(=O)CSC(Nc1cccc(F)c1)=C(C#N)C#N`, the AC50 was > 42 µM (inactive).

On to `Cc1ccc2cccc(OCc3nnc(SCC(=O)O)n3C)c2n1`, for which the AC50 was > 42 µM (inactive).

For `O=S(=O)(Nn1c(O)c(C=C2N=c3ccccc3=N2)sc1=S)c1ccccc1`, the AC50 is > 42 µM (inactive).

As for `COC(=O)CSc1ccc(S(=O)(=O)N2CCCCCC2)cc1[N+](=O)[O-]`, the AC50 is > 42 µM (inactive).

`CN(CC(=O)Nc1sccc1C#N)Cc1ccccc1`: the AC50 was > 42 µM (inactive).

For `Cn1c(CN2CCOCC2)nnc1SCC(N)=O`, the AC50 was > 42 µM (inactive).

On to `CCCCCNC(=O)c1ccc2c(=O)n(CC3CCCO3)c(=O)[nH]c2c1` (stereo not drawn), for which the AC50 was > 42 µM (inactive).

Consider `O=C(O)C1C2CCCCC2=C2CCCCC2C1C(=O)c1ccccc1` (stereo not drawn), for which the half-maximal activity concentration (AC50) was 3.26 µM.

For the compound `O=C(N/N=C/c1ccc(Cl)s1)c1ccccc1[N+](=O)[O-]`, the AC50 is > 42 µM (inactive).

Take `COc1ccccc1N1CCN(C(=O)c2ccc(-c3ccccc3)cc2)CC1`: the AC50 was > 42 µM (inactive).

For the compound `O=C(CSc1nc(=O)n2ccccc2n1)N1CCN(c2ccccc2)CC1`, the AC50 is > 42 µM (inactive).

On to `COc1ccc(/C=C2\SC(=S)N(CCCC(=O)Nc3cc(C)on3)C2=O)cc1OC`, for which the AC50 is > 42 µM (inactive).

On to `C=CCSc1nnc2c(n1)[nH]c1c(C)cccc12`, for which the AC50 is > 42 µM (inactive).

As to `CC(=O)NCc1c(Cl)cccc1-n1cccc1`, the AC50 was > 42 µM (inactive).

For the compound `COCCNC(=O)NC(=O)CSc1nc(C)c(C)c(C)n1`, the AC50 is > 42 µM (inactive).

For `N/C(=N\NC(=O)c1sccc1OCc1ccc(Cl)cc1Cl)c1ccccn1`, the AC50 is > 42 µM (inactive).

With `Cc1ccnc(NC(=O)CC(c2ccccc2)c2ccccc2)n1`, the AC50 was 29.8 µM.

Turning to `CCCCCCCN1C(Nc2ccccc2)=NC[C@@H]1CC(C)C`, the AC50 was > 21 µM (inactive).

As to `COc1ccc(OC)c(-c2cc(C(=O)Nc3c(C)nn(Cc4ccccc4Cl)c3C)no2)c1`, the AC50 is > 42 µM (inactive).

Turning to `CN(CC(=O)NCc1cccs1)S(=O)(=O)c1cccc2nsnc12`, the AC50 is > 42 µM (inactive).

For the compound `OCC[C@@H]1C[C@H](O)[C@@H](O)[C@]2(CCc3ccccc3CO2)O1`, the AC50 was > 42 µM (inactive).

For the compound `FC(F)(F)c1nnc(-c2ccccc2)nc1Oc1ccc(Cl)cc1Cl`, the AC50 was > 42 µM (inactive).

Take `O=C(CN1CCc2ccccc21)NN1CC(=O)N(c2ccc(Cl)cc2)CC1=O`: the AC50 was > 42 µM (inactive).

Regarding `CCCS(=O)(=O)N1CCC(C(=O)N2CCc3ccccc3C2)CC1`, the AC50 was > 42 µM (inactive).

Turning to `C=CCNC(=O)NC(=O)COC(=O)/C(C#N)=C/c1cc(C)n(CC(C)C)c1C`, the AC50 is > 42 µM (inactive).

For the compound `Cn1c(CSc2nc3ccccc3s2)nnc1SCC(=O)NCCN1CCOCC1`, the AC50 was > 42 µM (inactive).

For `O=C(Cc1cccs1)N1CCCC(c2nc3c(nnn3Cc3ccc(F)cc3)c(=O)[nH]2)C1` (stereo not drawn), the AC50 was > 42 µM (inactive).

For `Cc1ccccc1-c1nnc(SCc2ccc(F)cc2)o1`, the AC50 is > 42 µM (inactive).

In the case of `Cc1ccc(NC(=O)Cn2nc(C)c3ccccc3c2=O)cc1`, the AC50 is > 42 µM (inactive).

With `CCn1c(-c2ccccc2)c(C(=O)CC#N)c2ccccc21`, the AC50 was > 42 µM (inactive).

As for `O=S(=O)(Cc1ccccc1)N1CCN(c2ncccn2)CC1`, the AC50 is > 42 µM (inactive).

As for `COc1ccc(N2CCN(C(=O)C3CCCN(S(=O)(=O)c4ccc5c(c4)oc(=O)n5C)C3)CC2)cc1` (stereo not drawn), the AC50 is > 21 µM (inactive).

Turning to `Cc1cc(C)cc(N2C(=O)CC(Sc3ncn[nH]3)C2=O)c1` (stereo not drawn), the half-maximal activity concentration (AC50) was 1.92 µM.

Take `COc1ccc2c(c1)[C@H]1[C@H](CO2)[C@H](c2ccccc2)[C@]2(C)C(=O)Nc3cc(F)ccc3C(=O)N12`: the half-maximal activity concentration (AC50) is 7.87 µM.

With `Cn1cc(C(=O)N2CCCC(Nc3ccc(F)cc3)C2)c2ccccc21` (stereo not drawn), the AC50 is > 42 µM (inactive).

Regarding `CC1=C(C(=O)N2CCOCC2)C(c2ccc(O)cc2)NC(=S)N1` (stereo not drawn), the AC50 was > 42 µM (inactive).

Regarding `N#CC(C#N)=C1C=CC=CN1/C(=C\c1ccccc1Cl)C(=O)c1ccccc1`, the concentration at half-maximal activity (AC50) is 2.03 µM.

On to `COc1cccc(CN(C)CC2CCCN(CCc3ccc(Cl)cc3)C2)c1OC` (stereo not drawn), for which the AC50 is > 42 µM (inactive).

As to `O=C(COC(=O)c1ccc([N+](=O)[O-])s1)c1ccc[nH]1`, the AC50 is 21 µM.

Take `CCOC(=O)c1cc2c(ccn2-c2ccc(F)cc2)n1CC(=O)N1CCN(C(=O)c2ccco2)CC1`: the AC50 is > 42 µM (inactive).

For the compound `CC(C)c1cc(N2CCOCC2)n2ncc(-c3ccccc3)c2n1`, the AC50 was > 42 µM (inactive).

Take `CC(C)COc1ccc(C(=O)Nc2ccc([N+](=O)[O-])cc2)cc1`: the AC50 was > 42 µM (inactive).

With `CC12CC3(C)CC(C)(C1)CC(C(=O)NC(=S)N1CCCC1)(C2)C3`, the AC50 was > 42 µM (inactive).

In the case of `C/C(=N\N=C(/N)SC1CC(=O)N(c2cccc(Cl)c2)C1=O)c1cccs1` (stereo not drawn), the AC50 is > 42 µM (inactive).

On to `Cc1ccc(-n2nc3c(=O)n(CCCC(=O)NCc4cccc(F)c4)nc(C)c3c2C)cc1`, for which the AC50 is > 42 µM (inactive).

In the case of `CC(C)C(CC(=O)NCc1ccco1)c1ccco1` (stereo not drawn), the AC50 was > 42 µM (inactive).

As to `CC(C)c1nc2n[nH]c(N)c2c2c1CCC2`, the AC50 was > 42 µM (inactive).

On to `Nc1ccnc(=O)[nH]1`, for which the AC50 was > 42 µM (inactive).

For the compound `CCCCn1c(N)c(N(CC(C)C)C(=O)CSCC(=O)Nc2cccc(C)c2)c(=O)[nH]c1=O`, the AC50 was > 42 µM (inactive).

In the case of `COc1ccc2c(c1)[C@H]1[C@H](CO2)[C@H](c2ccccc2)[C@]2(C)C(=O)Nc3ccc(Br)cc3C(=O)N12`, the AC50 is 1.17 µM.

As for `OCCN1CN=C(Nc2nc3ccccc3o2)NC1`, the AC50 was > 42 µM (inactive).

With `Cc1ccc2nc(SCC(=O)Nc3cccc(S(N)(=O)=O)c3)[nH]c2c1`, the AC50 was > 42 µM (inactive).

In the case of `CC1=CC(C)(C)N2C(=O)C3(NCCc4c3[nH]c3ccccc43)c3cc(C)cc1c32` (stereo not drawn), the AC50 is 5.51 µM.

For the compound `CCn1c(C)c(C(C)=O)c(N2CCN(c3ccc(F)cc3)CC2)nc1=S`, the AC50 was > 42 µM (inactive).

For the compound `NC(=O)NC(=O)COC(=O)/C=C/c1cccs1`, the AC50 is > 42 µM (inactive).

Turning to `COc1ccc(C(=O)CC(=O)C(=O)Nc2ccc(C)c(Cl)c2)cc1`, the AC50 was > 42 µM (inactive).

Take `O=C(c1ccco1)N1CCN(CC(=O)N2c3ccccc3CCc3ccccc32)CC1`: the AC50 was > 42 µM (inactive).

As for `COc1ccc(NC(=O)CN(c2ccc(C(C)C)cc2)S(=O)(=O)c2c(C)noc2C)cc1OC`, the AC50 was > 42 µM (inactive).

`N#CCCN(Cc1cccnc1)C(=O)Nc1cccc(Cl)c1`: the AC50 was > 42 µM (inactive).

As to `O=C(COc1cccnc1[N+](=O)[O-])Nc1ccc2c(c1)CCC2`, the AC50 is > 21 µM (inactive).

With `CCCOc1ccc(C(=O)NCc2ccco2)cc1`, the AC50 is > 42 µM (inactive).

For `CC(=O)N(C)c1ccc(N2CCOCC2)c2c1C(=O)c1ccccc1C2=O`, the AC50 is > 42 µM (inactive).

As for `COc1ccccc1N1CCN(CCN2C(=O)C3CCCCN3C2=O)CC1` (stereo not drawn), the AC50 was > 42 µM (inactive).

Consider `CC(C)NC(=O)c1ccccc1-c1ccccc1`, for which the AC50 was > 42 µM (inactive).

As to `Cc1cc(C)cc(C(=O)NC(CC(N)=O)c2ccc(N3CCC(N4CCCCC4)CC3)c([N+](=O)[O-])c2)c1` (stereo not drawn), the AC50 was > 42 µM (inactive).

In the case of `CCOC(=O)CN1NC2(CCC(C(C)(C)C)CC2)NC1=S` (stereo not drawn), the AC50 is > 42 µM (inactive).

Take `COc1nc(OC)nc(N2CCC(C(=O)NC3CCCCCC3)CC2)n1`: the AC50 was > 42 µM (inactive).

Turning to `COc1ccc(/C=N/NC(=O)c2c(C)nc3ccccn23)cc1[N+](=O)[O-]`, the AC50 was > 42 µM (inactive).

For the origin of these results see PubChem BioAssay AID463204 (Broad Institute, 2010).
